Assay results published in article PMC11942486, “The Impact of a Quinone Scaffold on Thermo-TRPs Modulation by Dimethylheptyl Phytocannabinoids” (International Journal of Molecular Sciences, 2025).
Values joined by “and” are separate entries in the source; they are usually repeats but may differ in a detail not shown here. Equal entries are not always repeated. Where two headings read alike, the source gives them in different places.

How the values were obtained:
Assay type in all cases: cell-based
rat TRPA1 = target: T1, rat TRPA1 (Rattus norvegicus, UniProt Q6RI86); assay: Thermo-TRP assay: [Ca2+]i elevation (Fluo-4) in HEK-293 cells transfected with TRPA1; settings: for TRPA1 Efficacy (% AITC 100 μM): agonist effect as % of AITC 100 μM, HEK-293 rat TRPA1; for IC50: antagonist/desensitizing, added 5 min before AITC 100 μM, read-out: IC50 TRPA1; for EC50: half-maximal increase in [Ca2+]i, read-out: TRPA1 Potency EC50
T1 construct: expressed in transfected cells
Protocol: (§1) The compounds were tested on HEK-293 cells either stably transfected with rat TRPA1, TRPV2, TRPV3, TRPV4, TRPM8 or human TRPV1 or not-transfected, by performing a continuous monitoring of the intracellular calcium ([Ca^2+]i) elevation during the experiments, following the protocol already described. […] Cell fluorescence before and after the addition of various concentrations of tested compounds was measured, normalizing the effects against the response to ionomycin (IM, 4 μM). The effect on [Ca^2+]i in non-transfected HEK-293 cells were used as the baseline and subtracted from the values obtained from the transfected ones. The efficacy of the agonists was determined by normalizing their effect to the maximum Ca^2+ influx effect on [Ca^2+]i observed with application of 4μM ionomycin. The effects of TRPA1 agonists are expressed as a percentage of the effect obtained with 100 μM allyl isothiocyanate (AITC). In the TRPV3 assay, rat TRPV3-expressing HEK-293 cells were first sensitized with the structurally unrelated agonist 2-aminoethoxydiphenyl borate (100 μM). For the TRPM8, the experiments were carried out at 22 °C. The potency (EC50 values) is determined as the concentration required to produce half-maximal increases in [Ca^2+]i. […] A dose-response curve fitting (sigmoidal dose-response variable slope) and parameter estimation were performed with Graph-Pad Prism 8 (GraphPad Software Inc., San Diego, CA, USA). All determinations were performed at least in triplicate.

rat TRPV4 = target: T2, rat TRPV4 (Rattus norvegicus, UniProt Q9ERZ8); assay: Thermo-TRP assay: [Ca2+]i elevation (Fluo-4) in HEK-293 cells transfected with TRPV4
T2 construct: expressed in transfected cells
Protocol: as §1

rat TRPV3 = target: T3, rat TRPV3 (Rattus norvegicus, UniProt Q4QYD9); assay: Thermo-TRP assay: [Ca2+]i elevation (Fluo-4) in HEK-293 cells transfected with TRPV3; settings: for TRPV3 Efficacy (% Ionomycin 4 μM): agonist effect as % of ionomycin 4 μM, cells sensitized with 2-aminoethoxydiphenyl borate 100 μM; for IC50: antagonist/desensitizing, vs Thymol 100 μM; for EC50: half-maximal increase in [Ca2+]i, read-out: TRPV3 Potency EC50
T3 construct: expressed in transfected cells
T3 sequence (Q4QYD9 1-791): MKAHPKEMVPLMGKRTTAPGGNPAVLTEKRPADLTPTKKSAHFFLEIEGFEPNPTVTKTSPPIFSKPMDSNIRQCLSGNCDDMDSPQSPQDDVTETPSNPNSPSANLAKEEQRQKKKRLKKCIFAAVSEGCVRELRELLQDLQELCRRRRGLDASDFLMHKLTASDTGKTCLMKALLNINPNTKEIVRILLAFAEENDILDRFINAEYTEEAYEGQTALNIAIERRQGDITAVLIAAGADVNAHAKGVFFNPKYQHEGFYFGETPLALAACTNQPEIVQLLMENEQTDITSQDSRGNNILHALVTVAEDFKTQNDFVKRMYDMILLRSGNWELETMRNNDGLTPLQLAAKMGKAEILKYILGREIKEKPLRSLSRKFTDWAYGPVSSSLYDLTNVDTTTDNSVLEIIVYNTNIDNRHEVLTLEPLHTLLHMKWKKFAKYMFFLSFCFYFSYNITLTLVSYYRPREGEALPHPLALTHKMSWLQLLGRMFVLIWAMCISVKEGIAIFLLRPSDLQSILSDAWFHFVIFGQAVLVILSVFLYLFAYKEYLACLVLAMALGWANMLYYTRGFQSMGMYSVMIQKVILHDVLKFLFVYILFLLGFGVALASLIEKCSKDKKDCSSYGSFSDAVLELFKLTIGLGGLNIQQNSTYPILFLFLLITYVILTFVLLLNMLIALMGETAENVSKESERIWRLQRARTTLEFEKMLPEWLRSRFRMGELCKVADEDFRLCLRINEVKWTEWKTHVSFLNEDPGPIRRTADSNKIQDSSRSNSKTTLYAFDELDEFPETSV
Protocol: The compounds were tested on HEK-293 cells either stably transfected with rat TRPA1, TRPV2, TRPV3, TRPV4, TRPM8 or human TRPV1 or not-transfected, by performing a continuous monitoring of the intracellular calcium ([Ca^2+]i) elevation during the experiments, following the protocol already described. On the day of the experiment, the cells were loaded for 1 h in the dark at room temperature with the fluorescent probe Fluo-4 AM (4 μM in DMSO containing 0.02% Pluronic F-127). The cells were rinsed, resuspended in Tyrode’s solution (145 mM NaCl, 2.5 mM KCl, 1.5 mM CaCl2, 1.2 mM MgCl2, 10 mM D-glucose, and 10 mM HEPES, pH 7.4), and transferred to a quartz cuvette of a spectrofluorimeter (PerkinElmer LS50B; λEX = 488 nm, λEM = 516 nm) equipped with a PTP-1 fluorescence Peltier system (PerkinElmer Life and Analytical Sciences, Waltham, MA, USA) under continuous stirring. Cell fluorescence before and after the addition of various concentrations of tested compounds was measured, normalizing the effects against the response to ionomycin (IM, 4 μM). The effect on [Ca^2+]i in non-transfected HEK-293 cells were used as the baseline and subtracted from the values obtained from the transfected ones. The efficacy of the agonists was determined by normalizing their effect to the maximum Ca^2+ influx effect on [Ca^2+]i observed with application of 4μM ionomycin. The effects of TRPA1 agonists are expressed as a percentage of the effect obtained with 100 μM allyl isothiocyanate (AITC). In the TRPV3 assay, rat TRPV3-expressing HEK-293 cells were first sensitized with the structurally unrelated agonist 2-aminoethoxydiphenyl borate (100 μM). For the TRPM8, the experiments were carried out at 22 °C. The potency (EC50 values) is determined as the concentration required to produce half-maximal increases in [Ca^2+]i. Antagonist/desensitizing behavior is evaluated against the agonist of the TRP analyzed by adding the compounds directly in the quartz cuvette 5 min before stimulation of cells with the agonist (allylisothiocyanate (100 μM) for TRPA1, capsaicin (0.1 μM) for TRPV1, cannabidiol (2 μM) for TRPV2, thymol (100 μM) for TRPV3, GSK1016790A (10 nM) for TRPV4, and icilin (0.25 μM) for TRPM8). The IC50 value is expressed as the concentration exerting a half-maximal inhibition of the agonist effect, taking as 100% the effect on [Ca^2+]i exerted by the agonist alone. A dose-response curve fitting (sigmoidal dose-response variable slope) and parameter estimation were performed with Graph-Pad Prism 8 (GraphPad Software Inc., San Diego, CA, USA). All determinations were performed at least in triplicate.

[1] = vs GSK1016790A 10 nM, read-out: IC50 TRPV4

T2 sequence (Q9ERZ8 whole entry): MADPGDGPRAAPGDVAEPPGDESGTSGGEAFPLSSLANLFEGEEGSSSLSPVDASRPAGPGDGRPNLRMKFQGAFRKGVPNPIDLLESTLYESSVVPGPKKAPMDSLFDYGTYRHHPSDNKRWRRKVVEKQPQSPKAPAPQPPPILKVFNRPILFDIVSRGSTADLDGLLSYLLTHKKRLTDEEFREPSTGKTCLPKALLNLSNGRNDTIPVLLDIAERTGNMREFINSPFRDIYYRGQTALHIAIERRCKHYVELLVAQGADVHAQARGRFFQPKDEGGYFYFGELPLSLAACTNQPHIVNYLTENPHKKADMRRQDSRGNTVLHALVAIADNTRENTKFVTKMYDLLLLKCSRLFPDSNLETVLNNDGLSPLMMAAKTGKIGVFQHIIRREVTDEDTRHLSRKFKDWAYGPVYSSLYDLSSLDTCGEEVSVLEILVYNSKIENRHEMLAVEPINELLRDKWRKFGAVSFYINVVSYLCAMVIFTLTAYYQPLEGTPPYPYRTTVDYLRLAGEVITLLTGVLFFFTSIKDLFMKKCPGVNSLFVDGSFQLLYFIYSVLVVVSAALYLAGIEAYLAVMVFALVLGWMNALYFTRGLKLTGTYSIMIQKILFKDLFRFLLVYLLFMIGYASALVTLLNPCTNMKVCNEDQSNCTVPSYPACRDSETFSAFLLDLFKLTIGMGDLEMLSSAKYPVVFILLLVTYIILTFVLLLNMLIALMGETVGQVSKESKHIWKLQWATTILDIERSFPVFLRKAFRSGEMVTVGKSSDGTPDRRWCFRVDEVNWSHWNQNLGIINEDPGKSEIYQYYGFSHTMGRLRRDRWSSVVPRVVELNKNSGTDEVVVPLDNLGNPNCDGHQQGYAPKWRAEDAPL
T1 sequence (Q6RI86 whole entry): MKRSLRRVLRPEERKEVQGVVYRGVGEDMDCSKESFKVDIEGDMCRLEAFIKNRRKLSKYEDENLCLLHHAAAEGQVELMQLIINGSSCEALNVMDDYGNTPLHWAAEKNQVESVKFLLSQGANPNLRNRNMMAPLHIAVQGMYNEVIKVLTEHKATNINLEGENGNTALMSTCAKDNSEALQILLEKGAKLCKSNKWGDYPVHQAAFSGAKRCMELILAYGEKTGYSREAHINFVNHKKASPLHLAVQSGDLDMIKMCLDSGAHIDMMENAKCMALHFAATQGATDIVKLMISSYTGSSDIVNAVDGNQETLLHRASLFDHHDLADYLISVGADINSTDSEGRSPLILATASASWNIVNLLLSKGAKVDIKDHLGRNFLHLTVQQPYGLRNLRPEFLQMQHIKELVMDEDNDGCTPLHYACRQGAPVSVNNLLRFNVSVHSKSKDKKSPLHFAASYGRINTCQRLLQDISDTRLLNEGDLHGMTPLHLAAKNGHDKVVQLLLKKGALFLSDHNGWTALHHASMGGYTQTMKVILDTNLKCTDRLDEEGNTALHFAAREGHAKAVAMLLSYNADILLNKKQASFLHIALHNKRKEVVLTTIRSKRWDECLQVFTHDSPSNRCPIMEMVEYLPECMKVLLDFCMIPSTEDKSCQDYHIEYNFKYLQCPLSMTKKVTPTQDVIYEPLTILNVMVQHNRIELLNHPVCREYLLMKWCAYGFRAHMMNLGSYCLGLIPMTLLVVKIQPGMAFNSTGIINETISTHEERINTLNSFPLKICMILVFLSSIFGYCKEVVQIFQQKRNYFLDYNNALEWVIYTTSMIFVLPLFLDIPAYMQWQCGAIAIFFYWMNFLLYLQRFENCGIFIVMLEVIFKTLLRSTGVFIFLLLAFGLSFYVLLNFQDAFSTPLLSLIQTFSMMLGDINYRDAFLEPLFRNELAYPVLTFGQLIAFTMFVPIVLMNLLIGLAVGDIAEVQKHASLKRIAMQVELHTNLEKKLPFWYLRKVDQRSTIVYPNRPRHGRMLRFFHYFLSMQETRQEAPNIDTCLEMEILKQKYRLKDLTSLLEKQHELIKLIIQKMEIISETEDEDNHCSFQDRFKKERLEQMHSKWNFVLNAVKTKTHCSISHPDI

CCCCCCC(C)(C)C1=CC(=O)C2=C(OC(C)(CCC=C(C)C)C=C2)C1=O (stereo not shown) [8b]
TRPA1 Efficacy (% AITC 100 μM) (rat TRPA1): 111.2 ± 2.1%
IC50 (rat TRPA1): 350 ± 20 nM
EC50 (rat TRPA1): 190 ± 30 nM
IC50 (rat TRPV4; [1]): > 100000 nM
TRPV3 Efficacy (% Ionomycin 4 μM) (rat TRPV3): 37.55 ± 0.85%
IC50 (rat TRPV3): 38300 ± 2000 nM
EC50 (rat TRPV3): 13600 ± 1800 nM

CCCCCCC(C)(C)C1=CC(=O)C(C/C=C(\C)CCC=C(C)C)=C(O)C1=O [7b, p-DMHCBGQ]
TRPA1 Efficacy (% AITC 100 μM) (rat TRPA1): 114.2 ± 4.1%
IC50 (rat TRPA1): 1100 ± 100 nM
EC50 (rat TRPA1): 1100 ± 200 nM
IC50 (rat TRPV4; [1]): > 50000 nM
TRPV3 Efficacy (% Ionomycin 4 μM) (rat TRPV3): 51.1 ± 1.0%
IC50 (rat TRPV3): < 10000 nM and 8600 nM
EC50 (rat TRPV3): 1500 ± 200 nM

C=C(C)[C@@H]1CCC(C)=C[C@H]1C1=C(O)C(=O)C(C(C)(C)CCCCCC)=CC1=O [5b]
TRPA1 Efficacy (% AITC 100 μM) (rat TRPA1): 120.4 ± 3.0%
IC50 (rat TRPA1): 3500 ± 200 nM
EC50 (rat TRPA1): 5200 ± 800 nM
IC50 (rat TRPV4; [1]): > 100000 nM
TRPV3 Efficacy (% Ionomycin 4 μM) (rat TRPV3): 64.3 ± 0.9%
IC50 (rat TRPV3): 760 ± 10 nM
EC50 (rat TRPV3): 460 ± 20 nM

CCCCCCC(C)(C)C1=CC2=C(C(=O)C1=O)[C@@H]1CC(C)=CC[C@H]1C(C)(C)O2 [6b]
TRPA1 Efficacy (% AITC 100 μM) (rat TRPA1): 147.3 ± 7.3%
IC50 (rat TRPA1): 1800 ± 300 nM
EC50 (rat TRPA1): 4400 ± 1250 nM
IC50 (rat TRPV4): > 100000 nM
TRPV3 Efficacy (% Ionomycin 4 μM) (rat TRPV3): 66.8 ± 2.2%
IC50 (rat TRPV3): 720 ± 80 nM
EC50 (rat TRPV3): 500 ± 100 nM
